Here are results for 11 compounds from patent US6335451B1, “Five-membered heterocycles having biphenylsulfonyl substitution, with sulfonylcyanamide side chain, compositions containing them, and methods of using them” (Hoechst Aktiengesellschaft, priority 1997, dated 2002).

Data set [1] has as its system Na+-dependent Cl−/HCO3− exchanger (NCBE). In words: Inhibition of the Na+-dependent Cl−/HCO3− exchanger (NCBE) in human endothelial cells (pHi recovery, BCECF fluorescence, FLIPR). The conditions noted are these: inhibitor concentration of 10 μM; human endothelial cells (ECV-304); relative to 100% and 0% pHi recovery controls, 50 μM HOE 642 present. Format: cell-based. Here is the method:
Inhibition of the Na^+-dependent Cl^−/HCO3^− exchanger (NCBE) in human endothelial cells
Human endothelial cells (ECV-304) were detached from culture bottles with the aid of trypsin/EDTA buffer (0.05/0.02% in phosphate buffer) and, after centrifugation (100 g, 5 min), taken up in a buffered salt solution (mmol/l: 115 NaCl, 20 NH4Cl, 5 KCl, 1 CaCl2, 1 MgSO4, 20 N-(2-hydroxyethyl)piperazine-N′-2-ethanesulfonic acid (HEPES), 5 glucose and 1 g/l of bovine serum albumin; pH 7.4). This cell suspension was incubated at 37° C. for 20 min with 5 μM BCECF-acetoxymethyl ester. The cells were then washed and resuspended in a sodium- and bicarbonate-free buffer solution (mmol/l: 5 HEPES, 133.8 choline chloride, 4.7 KCl, 1.25 MgCl2, 0.97 K2HPO4, 0.23 KH2PO4, 5 glucose; pH 7.4).
For subsequent fluorescence measurement in an FLIPR (Fluorescent Imaging Plate Reader) 100 μl of this cell suspension having 20,000 cells in each case were pipetted per well into a 96-well microtiter plate and this microtiter plate was centrifuged (100 g, 5 min).
In the FLIPR, 100 μl of buffer solution in each case were then removed from a further pretreated microtiter plate and pipetted into each of the 96 wells of the measurement plate. A bicarbonate- and sodium-containing buffer solution (mmol/l: 5 HEPES, 93.8 NaCl, 40 NaHCO3, 4.7 KCl, 1.25 CaCl2, 1.25 MgCl2, 0.97 Na2HPO4, 0.23 NaH2PO4, 5 glucose; pH 7.4) which contained 50 μM HOE 642 was used for a 100% control, i.e. a recovery of the intracellular pH (pHi) via the NCBE. For a 0% control, i.e. no pHi recovery at all, the bicarbonate-free, sodium-containing buffer solution (mmol/l: 5 HEPES, 133.8 NaCl, 4.7 KCl, 1.25 CaCl2, 1.25 MgCl2, 0.97 Na2HPO4, 0.23 NaH2PO4, 5 glucose; pH 7.4) was employed, to which 50 μM HOE 642 were likewise added. The compounds according to the invention were added to the sodium- and bicarbonate-containing solution in various concentrations.
After addition of the buffer solutions to the dye-loaded, acidified cells in the measurement plate, the rise in the fluorescence intensity which corresponded to a rise in the pHi in each well of the microtiter plate was determined. The kinetics were in this case recorded at 35° C. for a period of 2 minutes.
The increase in the fluorescence intensities for different concentrations of the compounds according to the invention was related to the two controls and from this inhibitory action of the substances was determined.
Residual Activity of the NCBE at an Inhibitor Concentration of 10 μM

As usually defined, the melting point is the temperature, or range, at which the solid turns liquid. Consider `CCCCc1nc(Cl)c(C=O)n1Cc1ccc(-c2ccccc2S(=O)(=O)NC#N)cc1` [Example 15, 4′-(2-Butyl-4-chloro-5-formylimidazol-1-ylmethyl)biphenyl-2-sulfonylcyanamide], for which the melting point was 135 °C (dec.). In addition, in data set [1], the “Residual activity in % (residual activity of the NCBE)” value (“Residual activity in %” for short) is 55.7%.

For the compound `CCCc1nc(SC)c(C(=O)OCC)n1Cc1ccc(-c2ccccc2S(=O)(=O)NC#N)cc1` [Example 16], the melting point was 165 °C (dec.). Besides, the “Residual activity in %” value in data set [1] is 11.5%.

Regarding `CCOC(=O)c1c(SC)nc(CC)n1Cc1ccc(-c2ccccc2S(=O)(=O)NC#N)cc1` [Example 17, Ethyl 2-ethyl-5-methylsulfanyl-3-(2′-cyanoaminosulfonylbiphenyl-4-ylmethyl)-3H-imidazole-4-carboxylate], the melting point was 94 °C (dec.). For the same compound, in data set [1], the “Residual activity in %” value turned out to be 39.1%.

As for `CCOC(=O)c1c(SC)nc(C)n1Cc1ccc(-c2ccccc2S(=O)(=O)NC#N)cc1` [Example 18, Ethyl 2-methyl-5-methylsulfanyl-3-(2′-cyanoaminosulfonylbiphenyl-4-ylmethyl)-3H-imidazole-4-carboxylate], the melting point is 169 °C (dec.). In addition, the “Residual activity in %” value in data set [1] was 45.8%.

In the case of `CCOC(=O)c1c(SC)nc(C(C)C)n1Cc1ccc(-c2ccccc2S(=O)(=O)NC#N)cc1` [Example 19, Ethyl 2-isopropyl-5-methylsulfanyl-3-(2′-cyanoaminosulfonylbiphenyl-4-ylmethyl)-3H-imidazole-4-carboxylate], the melting point is 276 °C (dec.). The “Residual activity in %” value in data set [1] worked out at 21.5%.

As to `CCCCc1nc(SC)c(C(=O)OC(C)C)n1Cc1ccc(-c2ccccc2S(=O)(=O)NC#N)cc1` [Example 20, Isopropyl 2-butyl-5-methylsulfanyl-3-(2′-cyanoaminosulfonylbiphenyl-4-ylmethyl)-3H-imidazole-4-carboxylate], the melting point is 113 °C (dec.). The “Residual activity in %” value in data set [1] is recorded as 19.5%.

`CCCCc1nc(SC)c(C(=O)OCC)n1Cc1ccc(-c2cc(S(=O)(=O)NC#N)ccc2C)cc1` [Example 21, Ethyl 2-butyl-3-(2′-methyl-5′-cyanoaminosulfonylbiphenyl-4-yl-methyl)-5-methylsulfanyl-3H-imidazole-4-carboxylate]: the melting point is 127 °C (dec.). Also, the “Residual activity in %” value in data set [1] was found to be 42.6%.

Consider `CCCCc1nc(SC)c(C(=O)OCC)n1Cc1ccc(-c2ccc(S(=O)(=O)NC#N)cc2C)cc1` [Example 22, Ethyl 2-butyl-3-(2′-methyl-4′-cyanoaminosulfonylbiphenyl-4-yl-methyl)-5-methylsulfanyl-3H-imidazole-4-carboxylate], for which the melting point was 211 °C. In data set [1], the “Residual activity in %” value was 34.2%.

Take `CCCCc1nc(SC)c(C(=O)OCC)n1Cc1cccc(-c2cc(S(=O)(=O)NC#N)ccc2C)c1` [Example 24, Ethyl 2-butyl-3-(2′-methyl-5′-cyanoaminosulfonylbiphenyl-3-yl-methyl)-5-methylsulfanyl-3H-imidazole-4-carboxylate]: the melting point is 160 °C (dec.). Besides, in data set [1], the “Residual activity in %” value was 29.2%.

Regarding `CCCCc1nc(SC)c(C(=O)OCC)n1Cc1cccc(-c2ccc(S(=O)(=O)NC#N)cc2C)c1` [Example 25, Ethyl 2-butyl-3-(2′-methyl-4′-cyanoaminosulfonylbiphenyl-3-yl-methyl)-5-methylsulfanyl-3H-imidazole-4-carboxylate], the melting point is 115 °C (dec.). Further, the “Residual activity in %” value in data set [1] is listed as 70.8%.

As to `CCCCc1nc(SC)c(C(=O)OCC)n1Cc1cccc(-c2ccc(S(=O)(=O)NC#N)cc2C(F)(F)F)c1` [Example 26, Ethyl 2-butyl-5-methylsulfanyl-3-(4′-cyanoaminosulfonyl-2′-trifluoromethylbiphenyl-3-ylmethyl)-3H-imidazole-4-carboxylate], the melting point is 122 °C (dec.). The “Residual activity in %” value in data set [1] worked out at 65.3%.
